# Measurements taken from PubChem BioAssay (NCI).
# “And” between values parts separate entries of the source, which are not always exact repeats. Equal values may be shown once.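 How tested: cells in 96-well plates exposed to compound for 48 hours at five concentrations. GI50 is the concentration that inhibits growth by half. TGI: concentration producing complete growth inhibition.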
# Tests used:
# Experiment in all cases: inhibition of tumour cell growth, NCI panel, 48 h
# A498 renal = test system: A498 renal
# BT-549 breast = test system: BT-549 breast
# HT29 colon = test system: HT29 colon
# K-562 leukemia = test system: K-562 leukemia
# MDA-MB-435 = test system: MDA-MB-435
# MOLT-4 leukemia = test system: MOLT-4 leukemia
# NCI/ADR-RES ovarian = test system: NCI/ADR-RES ovarian
# PC-3 prostate = test system: PC-3 prostate
# SNB-19 CNS = test system: SNB-19 CNS
# SR leukemia = test system: SR leukemia
Compound,GI50 (A498 renal),TGI (A498 renal),GI50 (BT-549 breast),TGI (BT-549 breast),GI50 (HT29 colon),TGI (HT29 colon),GI50 (K-562 leukemia),TGI (K-562 leukemia),GI50 (MDA-MB-435),TGI (MDA-MB-435),GI50 (MOLT-4 leukemia),TGI (MOLT-4 leukemia),GI50 (NCI/ADR-RES ovarian),TGI (NCI/ADR-RES ovarian),GI50 (PC-3 prostate),TGI (PC-3 prostate),GI50 (SNB-19 CNS),TGI (SNB-19 CNS),GI50 (SR leukemia),TGI (SR leukemia)
COc1cc(/C=C\c2cc(OC)c(OC)c(OC)c2)cc(NS(=O)(=O)c2ccc(Cl)cc2)c1OC,0.179 µM,0.832 µM,0.966 µM,77 µM,0.348 µM,10.2 µM,0.306 µM,34.6 µM,0.188 µM,0.44 µM,0.672 µM,31.9 µM,0.365 µM,> 100 µM,0.395 µM,> 100 µM,0.745 µM,> 100 µM,0.406 µM,10.5 µM
CCN(CC)CCOc1ccc2c(C)c(C(=O)OC)oc2c1C(=O)/C=C/c1ccc(OC)cc1,22.8 µM,44.4 µM,20.6 µM,39.4 µM,1.9 µM,13 µM,1.13 µM,> 20.1 µM,5.54 µM,15.8 µM,1.54 µM,6.58 µM,2.58 µM,6.53 µM,2.01 µM,5.46 µM,4.86 µM,13.8 µM,0.565 µM,2.95 µM
O=c1nc2[nH]c3c(-c4n[nH]c(=O)[nH]c4=O)cccc3c2n[nH]1,> 100 µM,> 100 µM,> 100 µM,> 100 µM,> 100 µM,> 100 µM,> 100 µM,> 100 µM,> 100 µM,> 100 µM,> 100 µM,> 100 µM,> 100 µM,> 100 µM,> 100 µM,> 100 µM,> 100 µM,> 100 µM,> 100 µM,> 100 µM
Cc1ccc(S(=O)(=O)N2CCC(C(=O)O)(c3ccccc3)CC2)cc1,,> 100 µM,,> 100 µM,,> 100 µM,,> 100 µM,,> 100 µM,,> 100 µM,,> 100 µM,,> 100 µM,,> 100 µM,,> 100 µM
Nc1nc(=S)c2[nH]cnc2[nH]1,,> 23.8 µM and 93.7 µM and 12.6 µM,0.716 µM and 1.4 µM and 1.85 µM,,0.544 µM,121 µM and > 250 µM,0.488 µM,74.1 µM and 8.6 µM,0.349 µM and 0.552 µM,,0.368 µM and 0.488 µM,,0.37 µM and 0.421 µM and 0.96 µM,,1.28 µM and 3.35 µM and 2.83 µM,> 100 µM and 185 µM and > 250 µM,39.2 µM and 89 µM and 48.6 µM,> 100 µM and 241 µM and > 250 µM,0.0786 µM and 0.588 µM,> 24.7 µM and 15.7 µM
Cc1ccnc(Nc2ccc([N+](=O)[O-])c(NCCN3CCOCC3)n2)c1,0.00325 µM,0.22 µM,0.0208 µM and 0.0191 µM,23.4 µM,0.00438 µM,18.3 µM,0.00368 µM,> 100 µM,0.00233 µM,0.0068 µM,0.0304 µM and 0.0356 µM,> 100 µM,0.00429 µM,,0.00603 µM,39.5 µM,0.0312 µM,,0.00376 µM,63.5 µM
NC(N)=N/N=C/c1c(-c2ccncc2)nc2sc(Cl)cn12,17.4 µM,41.2 µM,10.3 µM,27.8 µM,17.1 µM,> 51.3 µM,2.96 µM,13.3 µM,6.63 µM,13.6 µM,2.83 µM,7.26 µM,35.5 µM,> 100 µM,5.8 µM,18.8 µM,7.62 µM,> 20.6 µM,2.24 µM,4.97 µM
COc1cc(N(CCC#N)CCC#N)ccc1/C(N=Nc1ccc(C(=O)O)cc1)=N/NC(=O)c1cc(Br)ccc1O,> 150 µg/mL,> 150 µg/mL,> 150 µg/mL,> 150 µg/mL,58.5 µg/mL,> 150 µg/mL,> 150 µg/mL,> 150 µg/mL,> 150 µg/mL,> 150 µg/mL,67.5 µg/mL,> 150 µg/mL,49.4 µg/mL,> 150 µg/mL,81 µg/mL,> 150 µg/mL,> 150 µg/mL,> 150 µg/mL,85.4 µg/mL,> 150 µg/mL
C#CC#CC#CC#CC#CC#CC#CC#CC[C@@H]1OC[C@@H](COC(=O)O[C@@H](C(=O)O[C@H]2C[C@@]3(O)[C@@H](OC(=O)c4ccccc4)[C@@H]4[C@]5(OC(C)=O)CO[C@@H]5C[C@H](O)[C@@]4(C)C(=O)[C@H](OC(C)=O)C(=C2C)C3(C)C)[C@@H](NC(=O)c2ccccc2)c2ccccc2)O1,0.332 µM,> 6.73 µM,0.639 µM,> 33.3 µM,0.095 µM,> 33.3 µM,0.17 µM,> 33.3 µM,0.0394 µM,0.111 µM,0.362 µM,> 33.3 µM,> 33.3 µM,> 33.3 µM,0.345 µM,> 33.3 µM,1.08 µM,> 33.3 µM,0.16 µM,> 33.3 µM
O=C(O)Cn1ccc(=O)c2cc([N+](=O)[O-])ccc21,,> 100 µM,,> 100 µM,,> 100 µM,,> 100 µM,,> 100 µM,,> 100 µM,,> 100 µM,,> 100 µM,,> 100 µM,,> 100 µM
OCCCCC#Cc1ccccc1C#Cc1ccc(C(F)(F)F)cc1,15 µM,28.6 µM,18 µM,35.1 µM,3.43 µM,18.1 µM,18.2 µM,43.6 µM,16.3 µM,31.8 µM,13.6 µM,31.4 µM,15 µM,30.7 µM,17.5 µM,35 µM,17.3 µM,32.3 µM,0.693 µM,31.8 µM
Cn1ccnc1C(=O)/C=C/c1ccc(C(=O)Nc2c(F)c(F)c(F)c(F)c2F)cc1,1.36 µM,3.16 µM,1.43 µM,2.75 µM,1.77 µM,3.89 µM,0.526 µM,2.83 µM,2.02 µM,4.68 µM,1.91 µM,4.81 µM,3.09 µM,12.9 µM,1.62 µM,6.54 µM,1.56 µM,3.24 µM,0.339 µM,2.26 µM
CCCCC[C@@H](C/C=C/CCC(=O)NC/C(=C/Cl)[C@H]1C(=O)C(C)(C)C(=O)[C@@H](C)[C@@]1(C)O)OC,26 µM,55 µM,17.9 µM,32.7 µM,14.5 µM,30.9 µM,21.8 µM,48.5 µM,18.7 µM,36.3 µM,21 µM,59.3 µM,20.8 µM,41.3 µM,19.6 µM,43.5 µM,20.3 µM,42 µM,20.7 µM,41.3 µM
Oc1ccccc1C=Nc1nc(OCc2ccccc2)nc2[nH]ncc12,20.8 µM,56.9 µM,33.7 µM,86.7 µM,22.5 µM,49.3 µM,30.3 µM,> 100 µM,20.7 µM,44.8 µM,21.5 µM,> 100 µM,28.5 µM,78.8 µM,16.8 µM,51.4 µM,37.7 µM,> 100 µM,13.1 µM,39.5 µM
CCN1CCN(c2nc(NNC(=O)c3ccccc3)nc(N3CCN(C(c4ccccc4)c4ccccc4)CC3)n2)CC1,6.3 µM,27.1 µM,2.49 µM,7.6 µM,2.95 µM,13.4 µM,1.77 µM,4.32 µM,1.94 µM,3.78 µM,2.01 µM,5.42 µM,3.32 µM,14.3 µM,1.9 µM,7.57 µM,4.28 µM,17.8 µM,1.78 µM,4.69 µM
CNCc1ccc(-c2[nH]c3cc(F)cc4c3c2CCNC4=O)cc1,21.6 µM,53.8 µM,17.4 µM,36.4 µM,19.5 µM,76.3 µM,18 µM,43.9 µM,16.5 µM,36.1 µM,21.9 µM,68 µM,69.2 µM,> 100 µM,23.6 µM,> 100 µM,17.3 µM,57 µM,9.51 µM,44 µM
Nc1ncnc2c1nc(Cl)n2C1OC(CO)C(O)C1O (stereo not drawn),,> 100 µM,,> 100 µM,,> 83 µM,,> 100 µM,,> 100 µM,,> 100 µM,,> 100 µM,,> 71.2 µM,,> 100 µM,,> 100 µM
COc1cc(/C=C2\C(=O)N(C)c3ccccc32)cc(OC)c1OC,33 µM,> 100 µM,33.4 µM,> 100 µM,14.7 µM,> 100 µM,5.02 µM,> 100 µM,5.02 µM,45.4 µM,12 µM,74.3 µM,13.7 µM,56.7 µM,10.5 µM,> 100 µM,24.7 µM,> 100 µM,6.26 µM,39.7 µM
COc1c(O)c2c3c(c1OC)-c1ccccc1CC3N(S(=O)(=O)c1ccc(C)cc1)CC2 (stereo not drawn),0.372 µM,5.54 µM,3.46 µM,42.2 µM,9.34 µM,21 µM,0.223 µM,7.65 µM,1.07 µM,2.92 µM,2.14 µM,10.9 µM,1.49 µM,4.54 µM,1.65 µM,> 50 µM,3.29 µM,> 50 µM,1.36 µM,7.09 µM
